Data published in patent publication US20050101595A1, “N-containing cycloalkyl-substituted amino-thiazole derivatives and pharmaceutical compositions for inhibiting cell proliferation and methods for their use” (PFIZER INC., priority 2003, published 2005).
pIC50, pKi: −log10 of the molar value. Counter-ions that a name gives are not always drawn. Like-named read-outs stand apart in the source and are kept apart here.

How the values were obtained:
[1] = molecular target: human CDK4 and genetically truncated (1-264) cyclin D3 (Homo sapiens, UniProt P11802); assay: Inhibition of CDK4/Cyclin D Retinoblastoma Kinase Activity; type: biochemical; conditions: for pKi: apparent Ki, CDK4/truncated cyclin D3, Rb fragment substrate, 25 μM ATP
Summary of the method: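 Human CDK4/truncated cyclin D3 (1-264) complex from baculovirus-infected insect cells, 5 nM, phosphorylating Rb fragment (residues 386-928, His-tagged) with 25 μM [32/33P]ATP in HEPES pH 7.4, MgCl2, 2% DMSO at 30° C. for 20 min (60 min for tight binders). Filter-captured radioactivity by phosphorimager; apparent Ki from competitive or tight-binding fits.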

HCT-116 cell line = assay: Inhibition of cell growth, tetrazolium salt (MTT) assay; type: cell-based; conditions: for HCT-116 % Inhibition at 0.25 μM: 0.25 μM compound; for pIC50: Homo sapiens, HCT-116, 120 h, MTT, three to five days, read-out: HCT-116 IC50
Summary of the method: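 Cells in McCoy's 5A medium were left 4 h, then given graded compound concentrations in 0.5% (v/v) DMSO and incubated three to five days at 37° C (5% CO2). MTT was added to 0.2 mg/mL for 4 h more; DMSO-solubilized formazan was read at 540 nm against 0.5% DMSO-only controls.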

CDK2/Cyclin A = CDK2/Cyclin A (Homo sapiens, UniProt P24941); assay: Inhibition of CDK2/Cyclin A Retinoblastoma Kinase Activity; type: biochemical; conditions: for pKi: apparent Ki, CDK2/proteolyzed cyclin A, Rb fragment substrate, 25 μM ATP
Summary of the method: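 Baculovirus-expressed CDK2 complexed with proteolyzed cyclin A (10 or 19 nM), Rb fragment substrate, 25 μM [32P/33P]ATP, HEPES pH 7.4, 30 °C for 60 or 75 min under initial-rate conditions. Filter capture and phosphorimager readout; apparent Ki fitted to competitive or tight-binding competitive inhibition.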

[2] = 0.1 μM compound, HCT-116, Table 3
[3] = 0.1 μM compound, HCT-116, Table 4

human CDK4 and genetically truncated (1-264) cyclin D3, sequence (P11802 whole entry, the tested form may be a part): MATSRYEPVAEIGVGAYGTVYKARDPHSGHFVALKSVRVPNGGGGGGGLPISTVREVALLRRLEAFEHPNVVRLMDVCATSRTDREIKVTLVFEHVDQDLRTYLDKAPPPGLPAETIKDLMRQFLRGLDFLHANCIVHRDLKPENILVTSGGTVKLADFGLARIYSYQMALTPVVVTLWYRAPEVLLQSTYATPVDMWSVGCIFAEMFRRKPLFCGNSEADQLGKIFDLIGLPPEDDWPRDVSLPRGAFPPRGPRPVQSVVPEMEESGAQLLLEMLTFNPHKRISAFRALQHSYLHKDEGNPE
human CDK4 and genetically truncated (1-264) cyclin D3, sequence (P30281 1-264 partner): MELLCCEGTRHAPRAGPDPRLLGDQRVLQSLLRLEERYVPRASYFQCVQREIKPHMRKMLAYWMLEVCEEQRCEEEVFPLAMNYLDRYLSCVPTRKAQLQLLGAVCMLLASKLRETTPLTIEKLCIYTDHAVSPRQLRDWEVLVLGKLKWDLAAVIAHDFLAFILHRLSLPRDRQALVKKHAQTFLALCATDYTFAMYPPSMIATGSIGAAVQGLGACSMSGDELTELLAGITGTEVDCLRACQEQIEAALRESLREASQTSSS

**Q.** What does the source list for `Cc1ccc(C(=O)N2CCC(Nc3nc(N)c(C(=O)c4c(F)cccc4F)s3)CC2)cc1C` [Example R141]?
**A.** CDK4 % Inhibition at 0.03 μM ([1]; at 0.03 μM): 82%; HCT-116 % Inhibition at 0.1 μM (HCT-116 cell line; HCT-116 cells, at 0.1 μM): 33%; HCT-116 5 Inhibition at 0.25 μM (HCT-116 cell line; HCT-116 cells, at 0.25 μM): 77; CDK2 % Inhibition at 0.03 μM (CDK2/Cyclin A; at 0.03 μM): 68%

**Q.** What does the source list for `Nc1nc(NC2CCN(S(=O)(=O)c3cccc4nsnc34)CC2)sc1C(=O)c1c(F)cccc1F` [Example P62]?
**A.** CDK4 % Inhibition at 0.03 μM ([1]; 0.03 μM compound, Table 3): 70%; HCT-116 % Inhibition at 0.1 μM (HCT-116 cell line; [2]): 22%; HCT-116 % Inhibition at 0.25 μM (HCT-116 cell line; HCT-116, Table 3): 26%; CDK2 % Inhibition at 0.03 μM (CDK2/Cyclin A; 0.03 μM compound, Table 3): 74%

**Q.** How did the “CDK4 % Inhibition at 0.03 μM” value ([1]; 0.03 μM compound, Table 4) turn out when `Cc1cccc(C(=O)N2CCC(Nc3nc(N)c(C(=O)c4c(F)cccc4F)s3)CC2)c1` [Example Q25] was run?
**A.** 60%

**Q.** And the “HCT-116 % Inhibition at 0.1 μM” value (HCT-116 cell line; [3])?
**A.** 31%

**Q.** And the “HCT-116 % Inhibition at 0.25 μM” value (HCT-116 cell line; HCT-116, Table 4)?
**A.** 85%

**Q.** And the “CDK2 % Inhibition at 0.03 μM” value (CDK2/Cyclin A; 0.03 μM compound, Table 4)?
**A.** 30%

**Q.** Which results are given for `Nc1nc(NC2CCN(S(=O)(=O)c3ccc(S(=O)(=O)c4ccc(C(F)(F)F)cn4)s3)CC2)sc1C(=O)c1c(F)cccc1F` [Example P43]?
**A.** CDK4 % Inhibition at 0.03 μM ([1]; 0.03 μM compound, Table 3): 57%; HCT-116 % Inhibition at 0.1 μM (HCT-116 cell line; [2]): 0%; HCT-116 % Inhibition at 0.25 μM (HCT-116 cell line; HCT-116, Table 3): 17%; CDK2 % Inhibition at 0.03 μM (CDK2/Cyclin A; 0.03 μM compound, Table 3): 70%

**Q.** Which results are given for `Nc1nc(NC2CCN(S(=O)(=O)CCc3cccc4ccccc34)CC2)sc1C(=O)c1c(F)cccc1F` [Example P76]?
**A.** CDK4 % Inhibition at 0.03 μM ([1]; 0.03 μM compound, Table 3): 33%; HCT-116 % Inhibition at 0.1 μM (HCT-116 cell line; [2]): 23%; CDK2 % Inhibition at 0.03 μM (CDK2/Cyclin A; 0.03 μM compound, Table 3): 9%

**Q.** What does the source list for `CCCCCCNC(=O)N1CCC(Nc2nc(N)c(C(=O)c3c(F)cccc3F)s2)CC1` [Example O58]?
**A.** CDK4 % Inhibition at 0.03 μM ([1]; 0.03 μM compound, Table 2): 6%; HCT-116 % Inhibition at 0.25 μM (HCT-116 cell line; HCT-116, Table 2): 42%; CDK2 % Inhibition At 0.03 μM (CDK2/Cyclin A; 0.03 μM compound, Table 2): 34%

**Q.** How did the pKi [1] turn out when `Nc1nc(NC2CCN(S(=O)(=O)c3ccc(OCCN4CCCCC4)nc3)CC2)sc1C(=O)c1c(F)cccc1F` [Example H6, 1-[4-Amino-2-{1-[6-(2-piperidin-1-yl-ethoxy)-pyridine-3-sulfonyl]-piperidin-4-ylamino}-thiazol-5-yl)-1-(2,6-difluoro-phenyl)-methanone Dihydrochloride] was run?
**A.** 9.42

**Q.** What about the pIC50 (HCT-116 cell line; first HCT-116 column (c4)) of the same molecule?
**A.** 7.22

**Q.** And the pIC50 (HCT-116 cell line; second HCT-116 column (c5))?
**A.** 6.30

**Q.** What about the pKi (CDK2/Cyclin A) of the same molecule?
**A.** 9.08

**Q.** Which results are given for `CCCCOc1ccc(C(=O)N2CCC(Nc3nc(N)c(C(=O)c4c(F)cccc4F)s3)CC2)cc1` [Example Q29]?
**A.** CDK4 % Inhibition at 0.03 μM ([1]; 0.03 μM compound, Table 4): 60%; HCT-116 % Inhibition at 0.1 μM (HCT-116 cell line; [3]): 7%; HCT-116 % Inhibition at 0.25 μM (HCT-116 cell line; HCT-116, Table 4): 50%; CDK2 % Inhibition at 0.03 μM (CDK2/Cyclin A; 0.03 μM compound, Table 4): 21%

**Q.** Which “CDK4 % Inhibition at 0.03 μM” value ([1]; 0.03 μM compound, Table 3) does the source give for `Nc1nc(NC2CCN(S(=O)(=O)c3ccc(C(=O)O)cc3)CC2)sc1C(=O)c1c(F)cccc1F` [Example P21] here?
**A.** 32%

**Q.** What about the “HCT-116 % Inhibition at 0.1 μM” value (HCT-116 cell line; [2]) of the same molecule?
**A.** 19%

**Q.** What about the “HCT-116 % Inhibition at 0.25 μM” value (HCT-116 cell line; HCT-116, Table 3) of the same molecule?
**A.** 29%

**Q.** What about the “CDK2 % Inhibition at 0.03 μM” value (CDK2/Cyclin A; 0.03 μM compound, Table 3) of the same molecule?
**A.** 23%

**Q.** Which results are given for `Cc1ccc(S(=O)(=O)N2CCC(Nc3nc(N)c(C(=O)c4c(F)cccc4F)s3)CC2)cc1` [Example F15, {4-Amino-2-[1-(toluene-4-sulfonyl)-piperidin-4-ylamino]-thiazol-5-yl}-(2,6-difluoro-phenyl)-methanone]?
**A.** pKi [1]: 8.47; pIC50 (HCT-116 cell line; first HCT-116 column (c4)): 6.39; pIC50 (HCT-116 cell line; second HCT-116 column (c5)): 5.92; pKi (CDK2/Cyclin A): 8.55

**Q.** Which results are given for `Nc1nc(NC2CCN(C(=O)c3ccc(F)c(F)c3)CC2)sc1C(=O)c1c(F)cccc1F` [Example Q73]?
**A.** CDK4 % Inhibition at 0.03 μM ([1]; 0.03 μM compound, Table 4): 78%; HCT-116 % Inhibition at 0.1 μM (HCT-116 cell line; [3]): 3%; HCT-116 % Inhibition at 0.25 μM (HCT-116 cell line; HCT-116, Table 4): 33%; CDK2 % Inhibition at 0.03 μM (CDK2/Cyclin A; 0.03 μM compound, Table 4): 52%

**Q.** Which results are given for `Nc1nc(NC2CCN(S(=O)(=O)CCNCCN3CCCC3)CC2)sc1C(=O)c1c(F)cccc1F` [Example K28, (4-Amino-2-{1-[2-(2-pyrrolidin-1-yl-ethylamino)-ethanesulfonyl]-piperidin-4-ylamino}-thiazol-5-yl)-(2,6-difluoro-phenyl)-methanone Trifluoroacetic Acid Salt.]?
**A.** pKi [1]: 8.55; pIC50 (HCT-116 cell line; first HCT-116 column (c4)): < 5.30; pIC50 (HCT-116 cell line; second HCT-116 column (c5)): < 5.30; pKi (CDK2/Cyclin A): 8.00

**Q.** What does the source list for `Nc1nc(NC2CCN(C(=O)CCc3ccccc3)CC2)sc1C(=O)c1c(F)cccc1F` [Example Q48]?
**A.** CDK4 % Inhibition at 0.03 μM ([1]; 0.03 μM compound, Table 4): 48%; HCT-116 % Inhibition at 0.1 μM (HCT-116 cell line; [3]): 0%; HCT-116 % Inhibition at 0.25 μM (HCT-116 cell line; HCT-116, Table 4): 19%; CDK2 % Inhibition at 0.03 μM (CDK2/Cyclin A; 0.03 μM compound, Table 4): 5%

**Q.** How did the pKi [1] turn out when `CN(C)CCN(C)c1ccc(C(=O)N2CCC(Nc3nc(N)c(C(=O)c4c(F)cccc4F)s3)CC2)cn1` [Example G32, 1-{4-Amino-2-[1-(1-{6-[(2-dimethylamino-ethyl)-methyl-amino]-pyridin-3-yl}-methanoyl)-piperidin-4-ylamino]-thiazol-5-yl}-1-(2,6-difluoro-phenyl)-methanone Trifluoroacetic Acid Salt] was run?
**A.** 7.38

**Q.** And the pIC50 (HCT-116 cell line; first HCT-116 column (c4))?
**A.** 5.33

**Q.** And the pIC50 (HCT-116 cell line; second HCT-116 column (c5))?
**A.** < 5.30

**Q.** And the pKi (CDK2/Cyclin A)?
**A.** 7.22
